According to patent US10278942B2 (PELOTON THERAPEUTICS, INC., priority 2015, dated 2019):

Tests used:
[1] = target: T1, HIF-2α HIS TAG-PASB Domain (Homo sapiens, UniProt Q99814); assay: HIF-2α Scintillation Proximity Assay (SPA); format: binding; conditions: read-out: Scintillation Proximity Assay IC50
T1 construct: 100 nM HIF-2α HIS TAG-PASB Domain
Procedure, shortened: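 IC50 values rest on percent inhibition, where the sample signal is scaled between high and low controls. Wells contain about 100 μL: compound dispensed as 2 μL of DMSO solution, 88 μL protein-probe mix and 10 μL of beads.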

786-O-Hif-Luc cells = assay: Luciferase Assay (HIF responsive elements reporter); conditions: read-out: Mean Luciferase EC50 (nM), 786-O-Hif-Luc cells
Method: A pool of infected cells were then selected against 2 μg/mL of puromycin (P8833, Sigma) for 10 days followed by limited dilution to select single clones. […] Each concentration was tested in triplicate. After about 24 hours, luciferase activity was determined using ONE-Glo Luciferase Assay Reagent (E6110, Promega) following the manufacturer's recommended procedure. EC50 were calculated using Dotmatics software.

T1 sequence (Q99814 240-350 limits assumed): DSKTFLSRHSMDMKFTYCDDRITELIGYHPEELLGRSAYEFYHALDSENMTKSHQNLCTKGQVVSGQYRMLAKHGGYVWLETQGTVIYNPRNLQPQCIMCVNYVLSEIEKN

IC50 [1] | EC50 (786-O-Hif-Luc cells) | SMILES
< 50 nM | 250 to 1000 nM | Cc1c(Oc2cc(F)cc(C#N)c2)ccc(S(=O)(=O)C(F)(F)F)c1Cl [Compound 144]
50 to 249 nM | 250 to 1000 nM | O=S(=O)(CF)c1ccc(Oc2cccc3sccc23)c2c1C(O)C(F)(F)C2 (stereo not drawn) [Compound 242]
> 1000 nM | > 1000 nM | CS(=O)(=O)N[C@H]1C[C@@H](Oc2ccc(S(=O)(=O)C(F)(F)F)c3c2CC(F)(F)[C@H]3O)C1 [Compound 726]
< 50 nM | 50 to 249 nM | O=S(=O)(c1ccc(OCC2(F)COC2)c2c1[C@H](O)C(F)(F)C2)C(F)(F)F [Compound 573]
250 to 1000 nM | > 1000 nM | CS(=O)(=O)c1ccc(OCC2(C#N)CC2)c2c1[C@H](O)C(F)(F)[C@@H]2F [Compound 754]
50 to 249 nM | 250 to 1000 nM | COC[C@H](C)Oc1ccc(S(=O)(=O)C(F)(F)F)c2c1CC(F)(F)[C@H]2O [Compound 660]
< 50 nM | < 50 nM | N#Cc1cccc(Oc2ccc3c(c2C(F)F)[C@@H](O)C(F)(F)S3(=O)=O)c1 [Compound 435]
< 50 nM | 50 to 249 nM | CC1(C)C[C@H](O)C[C@@H](c2ccc(S(=O)(=O)C(F)(F)F)c3c2CC(F)(F)[C@H]3O)C1 [Compound 549]
50 to 249 nM | 50 to 249 nM | C[C@]1(C#N)C[C@H](Oc2ccc(S(=O)(=O)C(F)(F)F)c3c2C[C@H](F)[C@H]3O)C1 [Compound 795]
50 to 249 nM | 250 to 1000 nM | CS(=O)(=O)c1ccc(OC2CCC(F)(F)CC2)c2c1[C@H](O)C(F)(F)[C@@H]2F [Compound 771]
250 to 1000 nM | > 1000 nM | O=S(=O)(c1ccc(Oc2cc(F)cc(F)c2)c2c1CC(O)C2)C(F)F (stereo not drawn) [Compound 22]
250 to 1000 nM | 250 to 1000 nM | O=S1(=O)c2ccc(Oc3cncc(Cl)c3)c(Cl)c2[C@@H](O)C1(F)F [Compound 432]
250 to 1000 nM | 250 to 1000 nM | CS(=O)(=O)c1ccc(Oc2cncc(Cl)c2)c2c1[C@H](O)C(F)(F)C2 [Compound 115]
50 to 249 nM | 250 to 1000 nM | O=S1(=O)CC(O)c2c1ccc(Oc1cc(F)cc(Cl)c1)c2C(F)F (stereo not drawn) [Compound 361]
50 to 249 nM | > 1000 nM | Cc1cc(S(=O)(=O)C(F)F)ccc1Oc1cc(F)cc(C#N)c1 [Compound 136]
< 50 nM | > 1000 nM | Cc1c(Oc2cc(F)cc(Cl)c2)ccc(S(=O)(=O)C(F)(F)F)c1Cl [Compound 143]
250 to 1000 nM | > 1000 nM | O=S(=O)(c1ccc(Oc2ccc(F)cc2)c2c1C(O)CC2)C(F)(F)F (stereo not drawn) [Compound 212]
< 50 nM | < 50 nM | N#C[C@H]1C[C@@H](Oc2ccc(S(=O)(=O)C(F)(F)F)c3c2CC(F)(F)[C@H]3O)C1 [Compound 787]
250 to 1000 nM | 250 to 1000 nM | C#CCOc1ccc(S(=O)(=O)C(F)(F)F)c2c1CC(F)(F)[C@H]2O [Compound 711]
50 to 249 nM | 50 to 249 nM | CC(C)CCOc1ccc(S(=O)(=O)C(F)(F)F)c2c1CC(F)(F)[C@H]2O [Compound 717]
> 1000 nM | > 1000 nM | N#Cc1c(Oc2cc(F)cc(Cl)c2)ccc(S(=O)(=O)C(F)F)c1CO [Compound 35]

IC50 [1] | EC50 (786-O-Hif-Luc cells) | SMILES
> 1000 nM | > 1000 nM | N#CC1(COc2ccc(S(=O)(=O)C(F)(F)F)c3c2CCC3O)CC1 (stereo not drawn) [Compound 619]
50 to 249 nM | 250 to 1000 nM | CCC(COC)Oc1ccc(S(=O)(=O)C(F)(F)F)c2c1CC(F)(F)C2O (stereo not drawn) [Compound 747]
50 to 249 nM | 50 to 249 nM | N#Cc1cncc(Nc2ccc(S(=O)(=O)C(F)(F)F)c3c2CC(F)(F)[C@H]3O)c1 [Compound 488, (S)-5-((2,2-difluoro-1-hydroxy-7-((trifluoromethyl)sulfonyl)-2,3-dihydro-1H-inden-4-yl)amino)nicotinonitrile]
50 to 249 nM | 50 to 249 nM | O=S(=O)(c1ccc(OCC2CC2)c2c1C(O)C(F)(F)C2)C(F)(F)F (stereo not drawn) [Compound 598]
< 50 nM | 250 to 1000 nM | O=Cc1c(S(=O)(=O)C(F)(F)F)ccc(Oc2cc(F)cc(Cl)c2)c1Cl [Compound 112]
< 50 nM | > 1000 nM | CS(=O)(=O)c1ccc(Sc2cc(F)cc(Cl)c2)c2c1[C@H](O)C(F)(F)[C@@H]2F [Compound 491, (1S,3R)-4-((3-chloro-5-fluorophenyl)thio)-2,2,3-trifluoro-7-(methylsulfonyl)-2,3-dihydro-1H-inden-1-ol]
50 to 249 nM | > 1000 nM | Cc1c(S(=O)(=O)C(F)F)ccc(Oc2cc(F)cc(C#N)c2)c1C#N [Compound 33]
< 50 nM | 50 to 249 nM | N#Cc1cncc(Oc2ccc(S(=N)(=O)C(F)(F)F)c3c2CC(F)(F)[C@H]3O)c1 (stereo partly drawn) [Compound 314]
< 50 nM | 250 to 1000 nM | O=S(=O)(c1ccc(-c2cc(F)cc(Cl)c2)c2c1[C@H](O)C(F)(F)C2)C(F)(F)F [Compound 557]
50 to 249 nM | 250 to 1000 nM | O=S(=O)(c1ccc(OC2CC3(COC3)C2)c2c1[C@H](O)C(F)(F)C2)C(F)(F)F [Compound 718]
< 50 nM | < 50 nM | O=S(=O)(c1ccc(OCC2CC2(F)F)c2c1[C@H](O)C(F)(F)C2)C(F)(F)F (stereo partly drawn) [Compound 728]
< 50 nM | 50 to 249 nM | O[C@H]1c2c(C(F)(F)F)ccc(OCC(F)F)c2[C@@H](F)C1(F)F [Compound 699]
50 to 249 nM | 250 to 1000 nM | CS(=O)(=O)c1ccc(OCC2CC(F)(F)C2)c2c1[C@H](O)C(F)(F)[C@@H]2F [Compound 759]
< 50 nM | 250 to 1000 nM | O=S(=O)(c1ccc(Oc2cc(F)cc(F)c2)c(Cl)c1CO)C(F)F [Compound 168]
> 1000 nM | > 1000 nM | N#CN=S1(=O)CC(O)c2c1ccc(Oc1cc(F)cc(F)c1)c2C(F)F (stereo not drawn) [Compound 394]
> 1000 nM | > 1000 nM | O=S1(=O)CCC(Oc2ccc(S(=O)(=O)C(F)(F)F)c3c2CC(F)(F)[C@H]3O)CC1 [Compound 721]
250 to 1000 nM | > 1000 nM | CS(=N)(=O)c1ccc(Oc2cc(F)cc(F)c2)c2c1C(O)CC2 (stereo not drawn) [Compound 190]
> 1000 nM | > 1000 nM | CCc1ccc(S(=O)(=O)C(F)(F)F)c2c1CC(F)(F)C2O (stereo not drawn) [Compound 516]
50 to 249 nM | 250 to 1000 nM | O=S(=O)(c1ccc(-c2ccc(Cl)cc2)c2c1[C@H](O)C(F)(F)C2)C(F)(F)F [Compound 563]
< 50 nM | > 1000 nM | Cc1c(Oc2cc(F)cc(Cl)c2)ccc(S(=O)(=O)C(F)(F)F)c1Br [Compound 140]
50 to 249 nM | > 1000 nM | N#CN=S1(=O)c2ccc(Oc3cc(F)cc(F)c3)c(Cl)c2[C@@H](O)C1(F)F (stereo partly drawn) [Compound 412]

IC50 [1] | EC50 (786-O-Hif-Luc cells) | SMILES
< 50 nM | 50 to 249 nM | CC(C)Oc1ccc(S(=O)(=O)C(F)(F)F)c2c1CC(F)(F)C2O (stereo not drawn) [Compound 593]
250 to 1000 nM | > 1000 nM | CCCOc1ccc(C(F)(F)F)c2c1CC(F)(F)/C2=N\O [Compound 703]
50 to 249 nM | 250 to 1000 nM | O=S1(=O)CC(O)c2c1ccc(Oc1cc(F)cc(F)c1)c2C(F)F (stereo not drawn) [Compound 370]
250 to 1000 nM | > 1000 nM | CS(=O)(=O)c1ccc(Oc2cc(C#N)cc(C(F)F)c2)c2c1C(O)CC2 (stereo not drawn) [Compound 249]
> 1000 nM | > 1000 nM | O=S(=O)(c1ccc(OC2CCC(O)CC2)c2c1C(O)C(F)(F)C2)C(F)(F)F (stereo not drawn) [Compound 618]
250 to 1000 nM | > 1000 nM | CS(=O)(=O)c1ccc(Oc2cc(F)cc(C#N)c2)c2c1C(=O)C(F)(Cl)C2 (stereo not drawn) [Compound 269]
> 1000 nM | > 1000 nM | CS(=O)(=O)c1ccc(OC[C@@H]2C[C@@H]2C#N)c2c1[C@H](O)C(F)(F)[C@@H]2F [Compound 764]
50 to 249 nM | 250 to 1000 nM | CS(=O)(=O)c1ccc(Oc2cc(F)cc(Cl)c2)c2c1C(O)CC2 (stereo not drawn) [Compound 90]
250 to 1000 nM | > 1000 nM | CS(=O)(=O)c1ccc(OC[C@H]2C[C@@H]2C#N)c2c1[C@H](O)C(F)(F)[C@@H]2F [Compound 770]
250 to 1000 nM | 250 to 1000 nM | N#CCC1(COc2ccc(S(=O)(=O)C(F)(F)F)c3c2CC(F)(F)[C@H]3O)COC1 [Compound 707]
50 to 249 nM | > 1000 nM | CCOC(=O)/C=C/c1c(S(=O)(=O)C(F)(F)F)ccc(Oc2cc(F)cc(C#N)c2)c1C [Compound 148]
< 50 nM | < 50 nM | N#C[C@H]1C[C@H](Oc2ccc(S(=O)(=O)C(F)(F)F)c3c2CC(F)(F)[C@H]3O)C1 [Compound 786]
250 to 1000 nM | 250 to 1000 nM | O=S(=O)(c1ccc(Oc2cncc(F)c2)c2c1[C@H](O)CC2)C(F)F [Compound 5]
< 50 nM | 250 to 1000 nM | CC(Oc1ccc(S(C)(=O)=O)c2c1[C@@H](F)C(F)(F)[C@H]2O)C(F)F (stereo partly drawn) [Compound 774]
> 1000 nM | > 1000 nM | CC(=O)N[C@H]1C[C@@H](Oc2ccc(S(=O)(=O)C(F)(F)F)c3c2CC(F)(F)[C@H]3O)C1 [Compound 725]
250 to 1000 nM | > 1000 nM | Cc1cc(S(=O)(=O)C(F)F)ccc1Oc1cc(F)cc(Cl)c1 [Compound 135]
50 to 249 nM | > 1000 nM | CS(=O)(=O)c1ccc(C(F)(F)CO)c2c1C(O)CC2 (stereo not drawn) [Compound 554]
< 50 nM | < 50 nM | CS(=O)(=O)c1ccc(Oc2cc(F)cc(Cl)c2)c2c1[C@H](O)C(F)(F)C2 [Compound 160]
50 to 249 nM | 250 to 1000 nM | COc1cc(F)cc(Oc2ccc3c(c2Br)[C@@H](O)C(F)(F)S3(=O)=O)c1 [Compound 426]
> 1000 nM | > 1000 nM | N#Cc1cc(F)cc(Oc2ccc3c(c2C#N)C(N)C(F)(F)S3(=O)=O)c1 (stereo not drawn) [Compound 464]
< 50 nM | > 1000 nM | O=S(=O)(c1ccc(CC2CCCCC2)c2c1C(O)C(F)(F)C2)C(F)(F)F (stereo not drawn) [Compound 509]
